Literature values, collected in article PMC4546577 (ACS chemical biology, 2015).

Details: sulphydryl group in MeaF; ref [69] PerrinDD, Dissociation constants of organic bases in aqueous solution, 1965

## N[C@@H](Cc1cccc(NCCS)c1)C(=O)O [MeaF, 3-(2-mercapto-ethyl)amino-phenylalanine]
  pKa (sulphydryl group): ~ 8.5
